Tests used:
[1] = biological target: T1, BRD4 Bromodomain 2 (BRD4 BD2) (Homo sapiens, UniProt O60885); test: AlphaScreen binding assay, BRD4 BD2; settings: His-tagged BRD4 BD2 100 nM, biotinylated H4 (1-21) K5/8/12/16 tetra-acetylated peptide 100 nM, compounds listed under IC50 range headings
T1 construct: 333-460 were cloned, expressed, and purified to homogeneity
How it was run: (§1)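 An AlphaScreen competition format was used with His-BRD4 BD1 or BD2 and biotin-H4 K5/8/12/16-acetyl peptide, each at matched final levels of 50 nM (BD1) or 100 nM (BD2). Incubation in HEPES/NaCl buffer with 0.1% BSA and 0.01% Triton X-100 ran ≥1 h before IC50 determination.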

[2] = tested on: acute myelocytic leukemia (AML) cell line MV4-11; test: Oncology cell growth assay (3-day proliferation, CellTiter-Glo); format: cell-based; settings: Homo sapiens, MV4-11, 72 h, MV4-11 cells, 3000 cells/well, compounds listed under IC50 range headings, read-out: MV411 IC50 (gIC50, inhibition of proliferation)
How it was run: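 72 h, 37° C, 5% CO2; MV4-11, 3000 cells/well, RPMI 1640 + 10% FBS. Compound final 10, 3.3, 1.1, 0.37, 0.12, 0.041, 0.013, 0.0045 μM. Readout CellTiter-Glo luminescence; gIC50 by 4-parameter logistic fit, normalised to DMSO and no-cell background.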

[3] = biological target: T2, BRD4 Bromodomain 1 (BRD4 BD1) (Homo sapiens, UniProt O60885); test: AlphaScreen binding assay, BRD4 BD1; settings: His-tagged BRD4 BD1 50 nM, biotinylated H4 (1-21) K5/8/12/16 tetra-acetylated peptide 50 nM, compounds listed under IC50 range headings
T2 construct: 44-168 and BRD4 BD2
How it was run: as §1

## CC(=O)N1c2ccc(-c3cnn(C4CCNCC4)c3)c(Oc3ccccc3Cl)c2CC[C@@H]1C [I-157, (S)-1-(5-(2-chlorophenoxy)-2-methyl-6-(1-(piperidin-4-yl)-1H-pyrazol-4-yl)-3,4-dihydroquinolin-1(2H)-yl)ethanone]
[1]
  IC50: < 50 nM
[2]
  IC50: < 500 nM
[3]
  IC50: 100 to 1000 nM

## COC(=O)N1c2ccc(-c3cnn(C4CCNCC4)c3)c(Oc3ccc(F)cc3)c2CC[C@@H]1C [I-158, (S)-methyl 5-(4-fluorophenoxy)-2-methyl-6-(1-(piperidin-4-yl)-1H-pyrazol-4-yl)-3,4-dihydroquinoline-1(2H)-carboxylate]
[1]
  IC50: < 50 nM
[2]
  IC50: < 500 nM
[3]
  IC50: 100 to 1000 nM

## COC(=O)N1c2ccc(-c3cnn(C4CCNCC4)c3)c(Oc3ccc(Cl)cc3)c2CC[C@@H]1C [I-159, (S)-methyl 5-(4-chlorophenoxy)-2-methyl-6-(1-(piperidin-4-yl)-1H-pyrazol-4-yl)-3,4-dihydroquinoline-1(2H)-carboxylate]
[1]
  IC50: < 50 nM
[2]
  IC50: < 500 nM
[3]
  IC50: 100 to 1000 nM

## COC(=O)N1c2ccc(-c3cnn(C4CCNCC4)c3)c(Oc3ccccc3Cl)c2CC[C@@H]1C [I-160, (S)-methyl 5-(2-chlorophenoxy)-2-methyl-6-(1-(piperidin-4-yl)-1H-pyrazol-4-yl)-3,4-dihydroquinoline-1(2H)-carboxylate]
[1]
  IC50: < 50 nM
[2]
  IC50: < 500 nM
[3]
  IC50: 100 to 1000 nM

## COC(=O)N1c2ccc(-c3cnn(C4CCNCC4)c3)c(Oc3ccc(C(N)=O)cc3)c2CC[C@@H]1C [I-161, (S)-methyl 5-(4-carbamoylphenoxy)-2-methyl-6-(1-(piperidin-4-yl)-1H-pyrazol-4-yl)-3,4-dihydroquinoline-1(2H)-carboxylate]
[1]
  IC50: < 50 nM
[2]
  IC50: > 1000 nM
[3]
  IC50: 100 to 1000 nM

## COC(=O)N1c2ccc(-c3cnn(C4CCNCC4)c3)c(Oc3ccc(F)c(C#N)c3)c2CC[C@@H]1C [I-162, (S)-methyl 5-(3-cyano-4-fluorophenoxy)-2-methyl-6-(1-(piperidin-4-yl)-1H-pyrazol-4-yl)-3,4-dihydroquinoline-1(2H)-carboxylate]
[1]
  IC50: < 50 nM
[2]
  IC50: < 500 nM
[3]
  IC50: 100 to 1000 nM

## COC(=O)N1c2ccc(-c3cnn(C4CCNCC4)c3)c(Oc3ccc(F)c(Cl)c3)c2CC[C@@H]1C [I-163, (S)-methyl 5-(3-chloro-4-fluorophenoxy)-2-methyl-6-(1-(piperidin-4-yl)-1H-pyrazol-4-yl)-3,4-dihydroquinoline-1(2H)-carboxylate]
[1]
  IC50: < 50 nM
[2]
  IC50: < 500 nM
[3]
  IC50: 100 to 1000 nM

## C[C@H]1CCc2c(ccc(-c3cnn(C4CCNCC4)c3)c2Oc2ccc(F)cc2)N1C(=O)C1CC1 [I-164, (S)-cyclopropyl(5-(4-fluorophenoxy)-2-methyl-6-(1-(piperidin-4-yl)-1H-pyrazol-4-yl)-3,4-dihydroquinolin-1 (2H)-yl)methanone]
[1]
  IC50: < 50 nM
[2]
  IC50: < 500 nM
[3]
  IC50: 100 to 1000 nM

## C[C@H]1CCc2c(ccc(-c3cnn(C4CCNCC4)c3)c2Oc2ccc(Cl)cc2)N1C(=O)C1CC1 [I-166, (S)-(5-(4-chlorophenoxy)-2-methyl-6-(1-(piperidin-4-yl)-1H-pyrazol-4-yl)-3,4-dihydroquinolin-1(2H)-yl)(cyclopropyl)methanone]
[1]
  IC50: < 50 nM
[2]
  IC50: < 500 nM
[3]
  IC50: 100 to 1000 nM

## C[C@H]1CCc2c(ccc(-c3cnn(C4CCNCC4)c3)c2Oc2ccc(C#N)cc2)N1C(=O)C1CC1 [I-167]
[1]
  IC50: < 50 nM
[2]
  IC50: < 500 nM
[3]
  IC50: 100 to 1000 nM

## C[C@H]1CCc2c(ccc(-c3cnn(C4CCNCC4)c3)c2Oc2ccccc2)N1C(=O)C1CC1 [I-168, (S)-cyclopropyl(2-methyl-5-phenoxy-6-(1-(piperidin-4-yl)-1H-pyrazol-4-yl)-3,4-dihydroquinolin-1(2H)-yl)methanone]
[1]
  IC50: < 50 nM
[2]
  IC50: < 500 nM
[3]
  IC50: 100 to 1000 nM

## C[C@H]1CCc2c(ccc(-c3cnn(C4CCNCC4)c3)c2Oc2ccc(F)c(Cl)c2)N1C(=O)C1CC1 [I-169, (S)-(5-(3-chloro-4-fluorophenoxy)-2-methyl-6-(1-(piperidin-4-yl)-1H-pyrazol-4-yl)-3,4-dihydroquinolin-1(2H)-yl)(cyclopropyl)methanone]
[1]
  IC50: < 50 nM
[2]
  IC50: < 500 nM
[3]
  IC50: 100 to 1000 nM

## C[C@H]1CCc2c(ccc(-c3cnn(C4CNC4)c3)c2Oc2ccc(F)cc2)N1C(=O)C1CC1 [I-170, (S)-(6-(1-(azetidin-3-yl)-1H-pyrazol-4-yl)-5-(4-fluorophenoxy)-2-methyl-3,4-dihydroquinolin-1 (2H)-yl)(cyclopropyl)methanone]
[1]
  IC50: < 50 nM
[2]
  IC50: < 500 nM
[3]
  IC50: 100 to 1000 nM

## COC(=O)N1c2ccc(-c3cnn(C4CCNC4)c3)c(Oc3ccc(F)cc3)c2CC[C@@H]1C (stereo partly drawn) [I-185, (2S)-methyl 5-(4-fluorophenoxy)-2-methyl-6-(1-(pyrrolidin-3-yl)-1H-pyrazol-4-yl)-3,4-dihydroquinoline-1(2H)-carboxylate]
[1]
  IC50: < 50 nM
[2]
  IC50: < 500 nM
[3]
  IC50: 100 to 1000 nM

## COC(=O)N1c2ccc(-c3cnn(C4CCNCC4)c3)c(Oc3cccc(F)c3)c2CC[C@@H]1C [I-188, Methyl (S)-5-(3-fluorophenoxy)-2-methyl-6-(1-(piperidin-4-yl)-1H-pyrazol-4-yl)-3,4-dihydroquinoline-1(2H)-carboxylate]
[1]
  IC50: < 50 nM
[2]
  IC50: < 500 nM
[3]
  IC50: 100 to 1000 nM

## COC(=O)N1c2ccc(-c3cnn(C4CCNCC4)c3)c(Oc3cccc(Cl)c3)c2CC[C@@H]1C [I-189, Methyl (S)-5-(3-chlorophenoxy)-2-methyl-6-(1-(piperidin-4-yl)-1H-pyrazol-4-yl)-3,4-dihydroquinoline-1(2H)-carboxylate]
[1]
  IC50: < 50 nM
[2]
  IC50: < 500 nM
[3]
  IC50: 100 to 1000 nM

## CC(=O)N1c2ccc(-c3cnn(C4CCNCC4)c3)c(Oc3ccc(F)cc3)c2CC[C@@H]1C [I-190, (S)-1-(5-(4-fluorophenoxy)-2-methyl-6-(1-(piperidin-4-yl)-1H-pyrazol-4-yl)-3,4-dihydroquinolin-1(2H)-yl)ethanone]
[1]
  IC50: 50 to 500 nM
[2]
  IC50: < 500 nM
[3]
  IC50: 100 to 1000 nM

## CC(=O)N1c2ccc(-c3cnn(C4CCNCC4)c3)c(Oc3ccc(Cl)cc3)c2CC[C@@H]1C [I-191, (S)-1-(5-(4-chlorophenoxy)-2-methyl-6-(1-(piperidin-4-yl)-1H-pyrazol-4-yl)-3,4-dihydroquinolin-1(2H)-yl)ethanone]
[1]
  IC50: < 50 nM
[2]
  IC50: < 500 nM
[3]
  IC50: 100 to 1000 nM

## COC(=O)N1c2ccc(-c3cnn(C4CCNCC4)c3)c(Oc3ccccc3)c2CC[C@@H]1C [I-200, (S)-methyl 2-methyl-5-phenoxy-6-(1-(piperidin-4-yl)-1H-pyrazol-4-yl)-3,4-dihydroquinoline-1(2H)-carboxylate]
[1]
  IC50: < 50 nM
[2]
  IC50: < 500 nM
[3]
  IC50: 100 to 1000 nM

## CC(=O)N1c2ccc(-c3cnn(C4CCNCC4)c3)c(Oc3ccccc3)c2CC[C@@H]1C [I-201, (S)-1-(2-methyl-5-phenoxy-6-(1-(piperidin-4-yl)-1H-pyrazol-4-yl)-3,4-dihydroquinolin-1(2H)-yl)ethanone]
[1]
  IC50: < 50 nM
[2]
  IC50: < 500 nM
[3]
  IC50: 100 to 1000 nM

## CC(=O)N1c2ccc(-c3cnn(C4CC4)c3)c(Oc3ccc(C(N)=O)cc3)c2CC[C@@H]1C [I-209, (S)-4-(1-acetyl-6-(1-cyclopropyl-1H-pyrazol-4-yl)-2-methyl-1,2,3,4-tetrahydroquinolin-5-yloxy)benzamide]
[1]
  IC50: 50 to 500 nM
[2]
  IC50: < 500 nM
[3]
  IC50: 100 to 1000 nM

## CC(=O)N1c2ccc(-c3cnn(C4CC4)c3)c(Oc3ccccc3F)c2CC[C@@H]1C [I-210, (S)-1-(6-(1-cyclopropyl-1H-pyrazol-4-yl)-5-(2-fluorophenoxy)-2-methyl-3,4-dihydroquinolin-1(2H)-yl)ethanone]
[1]
  IC50: < 50 nM
[2]
  IC50: < 500 nM
[3]
  IC50: 100 to 1000 nM

## CC(=O)N1c2ccc(-c3cnn(C4CC4)c3)c(Oc3ccccc3Cl)c2CC[C@@H]1C [I-211, (S)-1-(5-(2-chlorophenoxy)-6-(1-cyclopropyl-1H-pyrazol-4-yl)-2-methyl-3,4-dihydroquinolin-1(2H)-yl)ethanone]
[1]
  IC50: < 50 nM
[2]
  IC50: < 500 nM
[3]
  IC50: 100 to 1000 nM

## COC(=O)N1c2ccc(-c3cnn(C4CC4)c3)c(Oc3ccc(F)cc3)c2CC[C@@H]1C [I-212, (S)-methyl 6-(1-cyclopropyl-1H-pyrazol-4-yl)-5-(4-fluorophenoxy)-2-methyl-3,4-dihydroquinoline-1(2H)-carboxylate]
[1]
  IC50: 50 to 500 nM
[2]
  IC50: < 500 nM
[3]
  IC50: 1000 to 10000 nM

## COC(=O)N1c2ccc(-c3cnn(C4CC4)c3)c(Oc3ccc(C#N)cc3)c2CC[C@@H]1C [I-213, (S)-methyl 5-(4-cyanophenoxy)-6-(1-cyclopropyl-1H-pyrazol-4-yl)-2-methyl-3,4-dihydroquinoline-1(2H)-carboxylate]
[1]
  IC50: 50 to 500 nM
[2]
  IC50: < 500 nM
[3]
  IC50: 100 to 1000 nM

## COC(=O)N1c2ccc(-c3cnn(C4CC4)c3)c(Oc3ccc(Cl)cc3)c2CC[C@@H]1C [I-214, (S)-methyl 5-(4-chlorophenoxy)-6-(1-cyclopropyl-1H-pyrazol-4-yl)-2-methyl-3,4-dihydroquinoline-1(2H)-carboxylate]
[1]
  IC50: < 50 nM
[2]
  IC50: < 500 nM
[3]
  IC50: 1000 to 10000 nM

Reference: patent US10611750B2, “Tetrahydroquinoline compositions as bet bromodomain inhibitors” (FORMA Therapeutics, Inc., priority 2013, dated 2020)
